Experimental data published in PubChem BioAssay AID248 (DTP/NCI, 2004).
Where “and” joins values, the source holds several entries; their conditions need not be identical. Equal entries are not always repeated. Inconclusive results and toxic doses are left out. No stated cut-off is given here; in the data, active means T/C of 150% or more; inactive means T/C below 125%.

System: L1210 leukemia ip in BDF1 mice, survival T/C
Assay: NCI In Vivo Anticancer Drug Screen. Data for tumor model L1210 Leukemia (intraperitoneal) in B6D2F1 (BDF1) mice
Conditions: endpoint: mean survival time, higher = longer survival
Procedure, shortened: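 Survival endpoint. Drug-treated group vs vehicle group, expressed as T divided by C. Tumor passaged by transplantation.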

[1] = dose: 100.0 mg/kg/injection, schedule: Q04DX003 (ip), vehicle: saline with Tween-80
[2] = dose: 200.0 mg/kg/injection, schedule: Q04DX003 (ip), vehicle: saline with Tween-80
[3] = dose: 400.0 mg/kg/injection, schedule: Q04DX003 (ip), vehicle: saline with Tween-80
[4] = dose: 100.0 mg/kg/injection, schedule: Q01DX009 (ip), vehicle: Klucel (hydroxypropylcellulose) (HPC)
[5] = dose: 100.0 mg/kg/injection, schedule: Q04DX002 (ip), vehicle: Klucel (hydroxypropylcellulose) (HPC)
[6] = dose: 100.0 mg/kg/injection, schedule: Q04DX002 (ip), vehicle: saline
[7] = dose: 200.0 mg/kg/injection, schedule: Q01DX009 (ip), vehicle: Klucel (hydroxypropylcellulose) (HPC)
[8] = dose: 200.0 mg/kg/injection, schedule: Q04DX002 (ip), vehicle: Klucel (hydroxypropylcellulose) (HPC)
[9] = dose: 200.0 mg/kg/injection, schedule: Q04DX002 (ip), vehicle: saline
[10] = dose: 400.0 mg/kg/injection, schedule: Q01DX009 (ip), vehicle: Klucel (hydroxypropylcellulose) (HPC)
[11] = dose: 400.0 mg/kg/injection, schedule: Q04DX002 (ip), vehicle: Klucel (hydroxypropylcellulose) (HPC)
[12] = dose: 400.0 mg/kg/injection, schedule: Q04DX002 (ip), vehicle: saline
[13] = dose: 50.0 mg/kg/injection, schedule: Q04DX003 (ip), vehicle: saline
[14] = dose: 100.0 mg/kg/injection, schedule: Q01DX001 (ip), vehicle: saline
[15] = dose: 100.0 mg/kg/injection, schedule: Q04DX003 (ip), vehicle: saline
[16] = dose: 200.0 mg/kg/injection, schedule: Q01DX001 (ip), vehicle: saline
[17] = dose: 200.0 mg/kg/injection, schedule: Q04DX003 (ip), vehicle: saline
[18] = dose: 100.0 mg/kg/injection, schedule: Q04DX003 (ip), vehicle: Klucel (hydroxypropylcellulose) (HPC)
[19] = dose: 400.0 mg/kg/injection, schedule: Q04DX003 (ip), vehicle: Klucel (hydroxypropylcellulose) (HPC)
[20] = dose: 100.0 mg/kg/injection, schedule: Q01DX009 (ip), vehicle: saline with Tween-80
[21] = dose: 400.0 mg/kg/injection, schedule: Q01DX001 (ip), vehicle: saline
[22] = dose: 25.0 mg/kg/injection, schedule: Q01DX009 (ip), vehicle: saline
[23] = dose: 25.0 mg/kg/injection, schedule: Q04DX003 (ip), vehicle: saline
[24] = dose: 100.0 mg/kg/injection, schedule: Q01DX001 (ip), vehicle: carboxymethylcellulose (CMC)
[25] = dose: 200.0 mg/kg/injection, schedule: Q01DX001 (ip), vehicle: carboxymethylcellulose (CMC)
[26] = dose: 400.0 mg/kg/injection, schedule: Q01DX001 (ip), vehicle: carboxymethylcellulose (CMC)

Measured: T/C

CC(C)(C)OC(=O)N/N=C/c1ccc2c(c1)CCC2
inactive: [1] 100 % of control | [2] 100 % of control | [3] 94 % of control

O/N=C\c1cc[n+](CC[n+]2ccc(/C=N/O)cc2)cc1
inactive: dose: 100.0 mg/kg/injection, schedule: Q04DX002 (ip), vehicle: other 112 % of control

CCN(CC)CCNc1ccc(CO)c2oc3cc(Cl)ccc3c(=O)c12
inactive: dose: 31.25 mg/kg/injection, schedule: Q01DX009 (ip), vehicle: Klucel (hydroxypropylcellulose) (HPC) 94 % of control | dose: 62.5 mg/kg/injection, schedule: Q01DX009 (ip), vehicle: Klucel (hydroxypropylcellulose) (HPC) 100 % of control | dose: 125.0 mg/kg/injection, schedule: Q01DX009 (ip), vehicle: Klucel (hydroxypropylcellulose) (HPC) 96 % of control

COC(=O)c1cc(Cl)ccc1OCC(=O)Nc1cccc([N+](=O)[O-])c1
inactive: [4] 96 % of control | [5] 94 % of control | [6] 94 % of control | [7] 89 % of control | [8] 92 % of control | [9] 97 % of control | [10] 104 % of control | [11] 92 % of control | [12] 97 % of control

CC(=O)NCC(O)C(O)C(O)C(O)CO (stereo unspecified)
inactive: [6] 98 % of control | [9] 92 % of control | [12] 103 % of control

O=C(C[n+]1cccc(C(=O)Nc2ccccc2)c1)Nc1ccc(Cl)cc1
inactive: [13] 98 % of control | [14] 96 % of control | [15] 102 % of control | [16] 89 % of control | [17] 98 % of control

c1ccc(CC(Cc2ccccc2)=[N+]2C3CCCC2CC3)cc1
inactive: [15] 92 % of control | [17] 101 % of control | dose: 400.0 mg/kg/injection, schedule: Q04DX003 (ip), vehicle: saline 111 % of control

CC(C)=CCc1c2c(c3occ(-c4ccc(O)cc4)c(=O)c3c1O)C=CC(C)(C)O2
inactive: [18] 88 % of control | [19] 88 % of control

O=[N+]([O-])c1cccc(C=Nc2ccc(Nc3ccccc3)cc2)c1
inactive: [5] 114 % of control | [8] 100 % of control | [11] 111 % of control

O=C(O)CC(c1ccccc1)c1ccccc1
inactive: [4] 98 % of control | [18] 94 % of control | [7] 97 % of control | dose: 200.0 mg/kg/injection, schedule: Q04DX003 (ip), vehicle: Klucel (hydroxypropylcellulose) (HPC) 107 % of control | [10] 109 % of control | [19] 107 % of control

CC(=O)c1ccc(Br)cc1OCC(=O)O
inactive: dose: 100.0 mg/kg/injection, schedule: Q01DX009 (ip), vehicle: gum acacia 102 % of control | dose: 100.0 mg/kg/injection, schedule: Q04DX003 (ip), vehicle: gum acacia 97 % of control | dose: 200.0 mg/kg/injection, schedule: Q01DX009 (ip), vehicle: gum acacia 103 % of control | dose: 200.0 mg/kg/injection, schedule: Q04DX003 (ip), vehicle: gum acacia 92 % of control | dose: 400.0 mg/kg/injection, schedule: Q04DX003 (ip), vehicle: gum acacia 94 % of control

COc1ccc(CNCCN2CC2)cc1
inactive: dose: 10.0 mg/kg/injection, schedule: Q01DX009 (ip), vehicle: Klucel (hydroxypropylcellulose) (HPC) 108 % of control | dose: 20.0 mg/kg/injection, schedule: Q01DX009 (ip), vehicle: Klucel (hydroxypropylcellulose) (HPC) 106 % of control | dose: 40.0 mg/kg/injection, schedule: Q01DX009 (ip), vehicle: Klucel (hydroxypropylcellulose) (HPC) 98 % of control

C=CCSC(=S)OCC
inactive: dose: 25.0 mg/kg/injection, schedule: Q01DX009 (ip), vehicle: saline with Tween-80 88 % of control | dose: 50.0 mg/kg/injection, schedule: Q01DX009 (ip), vehicle: saline with Tween-80 104 % of control | [20] 109 % of control

CC(=O)OCC1OC(n2cnc(N)c2C#N)C(OC(C)=O)C1OC(C)=O (stereo unspecified)
inactive: dose: 50.0 mg/kg/injection, schedule: Q01DX001 (ip), vehicle: saline 98 % of control | [14] 102 % of control | [16] 102 % of control | [21] 102 % of control

CC1=CCC2C(C)(C)CCCC2(C)C1CO (stereo unspecified)
inactive: dose: 75.0 mg/kg/injection, schedule: Q01DX001 (ip), vehicle: saline 98 % of control | dose: 150.0 mg/kg/injection, schedule: Q01DX001 (ip), vehicle: saline 100 % of control | dose: 300.0 mg/kg/injection, schedule: Q01DX001 (ip), vehicle: saline 95 % of control

CCN(CC)CCC1CCNCC1
inactive: dose: 6.25 mg/kg/injection, schedule: Q01DX009 (ip), vehicle: saline 101 % of control | dose: 12.5 mg/kg/injection, schedule: Q01DX009 (ip), vehicle: saline 95 % of control | dose: 12.5 mg/kg/injection, schedule: Q04DX003 (ip), vehicle: saline 100 % of control | [22] 98 % of control | [23] 96 % of control

Cc1c(F)cc(I)cc1[N+](=O)[O-]
inactive: dose: 100.0 mg/kg/injection, schedule: Q01DX001 (ip), vehicle: acetone 100 % of control | [20] 103 % of control | [1] 100 % of control | dose: 200.0 mg/kg/injection, schedule: Q01DX001 (ip), vehicle: acetone 95 % of control | dose: 200.0 mg/kg/injection, schedule: Q01DX009 (ip), vehicle: saline with Tween-80 105 % of control | [2] 100 % of control | dose: 400.0 mg/kg/injection, schedule: Q01DX001 (ip), vehicle: acetone 97 % of control | dose: 400.0 mg/kg/injection, schedule: Q01DX009 (ip), vehicle: saline with Tween-80 103 % of control | [3] 93 % of control

C=C(C)c1ccc(C)cc1-c1c(OCc2ccccc2)ccc(CCCCC)c1OC
inactive: dose: 100.0 mg/kg/injection, schedule: Q01DX001 (ip), vehicle: Klucel (hydroxypropylcellulose) (HPC) 97 % of control | dose: 200.0 mg/kg/injection, schedule: Q01DX001 (ip), vehicle: Klucel (hydroxypropylcellulose) (HPC) 92 % of control | dose: 400.0 mg/kg/injection, schedule: Q01DX001 (ip), vehicle: Klucel (hydroxypropylcellulose) (HPC) 92 % of control

CC(=O)/C(C)=C/C(=O)O
inactive: [22] 95 % of control | [23] 97 % of control | dose: 50.0 mg/kg/injection, schedule: Q01DX009 (ip), vehicle: saline 97 % of control | [13] 97 % of control | dose: 100.0 mg/kg/injection, schedule: Q01DX009 (ip), vehicle: saline 105 % of control | [15] 97 % of control and 108 % of control

Cc1cc(SCc2ccccc2)cc(C)[o+]1
inactive: [14] 98 % of control | [16] 98 % of control | [21] 107 % of control

C/C(=N/O)c1ccc2c(c1)Cc1ccccc1-2
inactive: [24] 105 % of control | [25] 100 % of control | [26] 98 % of control

Cc1ccc(C2(O)CC3CCC2(c2ccc(C)cc2)C3)cc1 (stereo unspecified)
inactive: dose: 50.0 mg/kg/injection, schedule: Q01DX001 (ip), vehicle: carboxymethylcellulose (CMC) 95 % of control | [24] 101 % of control | [25] 98 % of control | [26] 98 % of control
